Data reported in patent publication US6111069A, “Polypeptides that include conformation-constraining groups which flank a protein-protein interaction site” (Virginia Commonwealth University, priority 1997, dated 2000).
Where a SMILES comes first, the peptide text is derived from it.

Experiments:
[1] = Preliminary studies of hypotensive peptide versus diltiazem (diastolic pressure, arrhythmia); format: in vivo, rat
Experimental: 60 to 120 μg per rat (5 to 10 μM).

[2] = system: receptors of sweet tasting papillae; conditions: comparison value; cited from earlier work

With `CSCC[C@H](NC(=O)[C@H](C)NC(=O)[C@@H](NC(=O)[C@@H]1CCCN1C(=O)[C@H](C)N)[C@@H](C)O)C(=O)N[C@@H](Cc1c[nH]c2ccccc12)C(=O)N1CCC[C@H]1C(=O)N[C@@H](C)C(=O)O` [HP-1, Ala-Pro-Thr-Ala-Met-Trp-Pro-Ala] (H-APTAMWPA-OH) the “Effect on diastolic pressure” value [1] was “does not increase diastolic pressure”.

In the case of `COC(=O)[C@H](Cc1ccccc1)NC(=O)[C@@H](N)CC(=O)O` [aspartame] (H-Asp-Phe-OMe), the “Sweetness relative to sugar” value [2] is listed as 160 times sweeter than sugar.
